In the supplement of paper PMC10307832:

Tests used:
Assay in all cases: relative viability (nuclei count vs DMSO), 5 days (fraction); higher = more cells survive
Linsitinib + OSI-027 = compound: C[C@]1(O)C[C@@H](c2nc(-c3ccc4ccc(-c5ccccc5)nc4c3)c3c(N)nccn32)C1 [Linsitinib] + COc1cccc2cc(-c3nc([C@H]4CC[C@H](C(=O)O)CC4)n4ncnc(N)c34)[nH]c12 [OSI-027] (partner 0.5 µM)
Outline: (§1)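 Values are medians from duplicate plates. Each reflects relative viability, defined as the nuclei count of treated wells over that of vehicle wells. Lung cancer cell lines in 1536-well plates were pin-tool dosed one day after seeding with one drug alone or with a fixed anchor-drug dose plus five library-drug doses (not always all listed) in √10 steps, then fixed, stained and imaged at 4× after 5 days.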

Ispinesib + Pictilisib = compound: Cc1ccc(C(=O)N(CCCN)[C@@H](c2nc3cc(Cl)ccc3c(=O)n2Cc2ccccc2)C(C)C)cc1 [Ispinesib] + CS(=O)(=O)N1CCN(Cc2cc3nc(-c4cccc5[nH]ncc45)nc(N4CCOCC4)c3s2)CC1 [Pictilisib] (partner 1 µM)
Outline: as §1

Ispinesib + Crizotinib = compound: Cc1ccc(C(=O)N(CCCN)[C@@H](c2nc3cc(Cl)ccc3c(=O)n2Cc2ccccc2)C(C)C)cc1 [Ispinesib] + C[C@@H](Oc1cc(-c2cnn(C3CCNCC3)c2)cnc1N)c1c(Cl)ccc(F)c1Cl [Crizotinib] (partner 1 µM)
Outline: as §1

Ispinesib + Vorinostat = compound: Cc1ccc(C(=O)N(CCCN)[C@@H](c2nc3cc(Cl)ccc3c(=O)n2Cc2ccccc2)C(C)C)cc1 [Ispinesib] + O=C(CCCCCCC(=O)Nc1ccccc1)NO [Vorinostat] (partner 1 µM)
Outline: as §1

Cell Line	relative viability (Linsitinib + OSI-027; first compound 0.01 µM)	relative viability (Linsitinib + OSI-027; first compound 0.03162 µM)	relative viability (Linsitinib + OSI-027; first compound 0.1 µM)	relative viability (Linsitinib + OSI-027; first compound 1 µM)	relative viability (Ispinesib + Pictilisib; first compound 0.001 µM)	relative viability (Ispinesib + Pictilisib; first compound 0.003162 µM)	relative viability (Ispinesib + Pictilisib; first compound 0.01 µM)	relative viability (Ispinesib + Pictilisib; first compound 0.03162 µM)	relative viability (Ispinesib + Pictilisib; first compound 0.1 µM)	relative viability (Ispinesib + Crizotinib; first compound 0.001 µM)	relative viability (Ispinesib + Crizotinib; first compound 0.003162 µM)	relative viability (Ispinesib + Crizotinib; first compound 0.01 µM)	relative viability (Ispinesib + Crizotinib; first compound 0.03162 µM)	relative viability (Ispinesib + Crizotinib; first compound 0.1 µM)	relative viability (Ispinesib + Vorinostat; first compound 0.001 µM)	relative viability (Ispinesib + Vorinostat; first compound 0.003162 µM)	relative viability (Ispinesib + Vorinostat; first compound 0.01 µM)	relative viability (Ispinesib + Vorinostat; first compound 0.03162 µM)	relative viability (Ispinesib + Vorinostat; first compound 0.1 µM)	relative viability (Linsitinib + OSI-027; first compound 0.3162 µM)
NCI-H2347	0.36	0.517	0.261	0.356	0.798	0.92	0.592	0.523	0.419	0.714	0.833	0.717	0.544	0.402	0.562	0.617	0.738	0.625	0.471	
NCI-H2405	0.624	0.638	0.637	0.347	0.543	0.455	0.395	0.317	0.201	0.846	0.859	0.919	0.835	0.406	1.07	1.19	1.23	0.622	0.519	0.53
NCI-H3122	0.994	0.868	1.03	0.487	0.601	0.838	0.635	0.569	0.162	0.28	0.27	0.274	0.314	0.202	1	1.09	1.07	0.855	0.119	
PC-3 [JPC-3]	0.709	0.79	0.664	0.463	0.751	0.812	0.876	0.628	0.53	0.906	1.04	1.11	1.04	0.913	0.776	0.977	0.794	0.498	0.435	0.651
PC-14	0.746	0.706	0.798	0.546	0.796	0.668	0.78	0.232	0.169	0.967	0.971	1.07	0.873	0.232	0.773	0.569	0.343	0.103	0.134	0.568
